Experiments:
Monochoria vaginalis = test: Example 2 field test, weed control, Chia Yi, Taiwan; assay type: in vivo; details: obs. 63 DAT
Experimental: In the field tests of the herbicide of this invention with transplanted rice, the rice seedlings were grown in conventional manner, by seeding the rice in a typical seedbed of sandy loam to clay soil of the country wherein the test was conducted. For laboratory and greenhouse work the seedlings were obtained by seeding rice in a mixture of soil, e.g., Ray silt loam, and peat in wood flats. For purposes of testing the herbicides on younger rice seedlings (infant or Dapog) the rice was usually allowed to grow for 6-15 days before lifting for transplanting. Older (ordinary) rice plants were usually grown for a period of about 2-3 weeks, or as much as about 7 weeks before lifting. Since the period of growth is dependent upon climatic conditions, a better measure of when to transplant the rice seedling is the leaf stage of growth; for infant or Dapog rice the seedling is lifted at the 1.5-2 leaf stage of growth, and for ordinary seedlings at the 2.5-5 leaf stage. The seedlings were then transplanted to the test plots for evaluation of the herbicide for injury against weed species present with the transplanted rice. The herbicides were then applied to the growth medium of the weeds and transplant rice, either preemergent or postemergent with respect to the weeds and postemergent with respect to the transplanted rice. […] Application rates given in the tables refer to the amount of active ingredient used.

transplanted rice = test: Example 2 field test, crop injury; details: obs. 63 DAT
Experimental: (§1) In the tests described in the tables below, the herbicides were formulated and used in granular form in conventional manner. […] The commercial herbicide used was a granular product having 5% active ingredient.
(§2) In the field tests of the herbicide of this invention with transplanted rice, the rice seedlings were grown in conventional manner, by seeding the rice in a typical seedbed of sandy loam to clay soil of the country wherein the test was conducted. For laboratory and greenhouse work the seedlings were obtained by seeding rice in a mixture of soil, e.g., Ray silt loam, and peat in wood flats. For purposes of testing the herbicides on younger rice seedlings (infant or Dapog) the rice was usually allowed to grow for 6-15 days before lifting for transplanting. Older (ordinary) rice plants were usually grown for a period of about 2-3 weeks, or as much as about 7 weeks before lifting. Since the period of growth is dependent upon climatic conditions, a better measure of when to transplant the rice seedling is the leaf stage of growth; for infant or Dapog rice the seedling is lifted at the 1.5-2 leaf stage of growth, and for ordinary seedlings at the 2.5-5 leaf stage. The seedlings were then transplanted to the test plots for evaluation of the herbicide for injury against weed species present with the transplanted rice. The herbicides were then applied to the growth medium of the weeds and transplant rice, either preemergent or postemergent with respect to the weeds and postemergent with respect to the transplanted rice. Application times are designated in the tables as "DAT", meaning "days after transplant". Application rates given in the tables refer to the amount of active ingredient used.
Rice seedlings (ordinary) of Tainan No. 5 variety (japonica) were transplanted at 19 days of growth. Granular formulations of Herbicides A and B were applied at the 1 leaf stage of grass weed (4 DAT) and 2.5 leaf stage of grass weed (10 DAT). Observations were made at 63 DAT and results reported in Table 2 as an average of 3 replications.

[1] = tested on: Broadleaf: Mv, Sz (Monochoria vaginalis, Sphenoclea zeylanica); test: Example 3 field test on Dapog rice, weed control, Munoz, Philippines; assay type: in vivo, Monochoria vaginalis and Sphenoclea zeylanica; details: obs. 42 DAT
Description: Treatments were replicated four times.

Dapog transplanted rice [2] = test: Example 3 field test, crop injury; details: obs. 42 DAT
Experimental: as §1, §2
(§3) Eleven (11) day-old Dapog seedlings were transplanted and treated at 5 DAT and 14 DAT with Herbicides A and B. The plots were overseeded with Echinochloa crusgalli seeds at 2 kgs/ha prior to transplanting. Treatments were replicated four times.

Dapog transplanted rice [3] = test: Example 3 field test, rice yield; assay type: in vivo
Experimental: as §1, §2, §3

[4] = tested on: ordinary transplanted rice; test: Example 4 field test, crop injury; details: obs. 36 DAT
Experimental: as §1, §2
In this example comparative field tests were conducted with Herbicides A and B on ordinary transplanted rice at Munoz, Philippines.
Twenty-one (21) day-old ordinary wet bed seedlings of the Fortuna variety were transplanted to field plots and Herbicides A and B applied at 5 DAT and 14 DAT. The field plots were overseeded with barnyardgrass (E. crusgalli) at 2 kgs/ha. Treatments were replicated four times.

Ann. Cyp (Cyperus spp) = test: Example 5 field test, weed control, JAAPR, Japan; details: 1.5 kg/ha, 7 DAT
Experimental: as §1, §2
The rice seedlings were grown to the 1.7 leaf stage for infant seedlings and to the 5.5 leaf stage for ordinary seedlings. Two days after puddling the soil in which the seedlings were to be transplanted, both infant and ordinary seedlings were transplanted into plots 8.5 m^2.
The weed symbol "Obw" represents "other broadleaf weeds" of unspecified identity. Results presented in Table 5 represent the average of 2 replications.

[5] = tested on: Ea (Eleocharis acicularis); test: Example 5 field test, weed control, JAAPR, Japan; assay type: in vivo; details: 1.5 kg/ha, 7 DAT
[6] = tested on: weeds in upland direct-seeded rice; test: Example 7 overall; assay type: in vivo; details: particular spectrum of weeds
Experimental: In a further comparative study of the preemergence activity of Herbicides A and B, a variety of weeds and upland direct-seeded rice were tested under greenhouse conditions. The present invention is not concerned with the use of Herbicide A in direct-seeded rice. The primary purpose of the experimental work in this example is to compare relative herbicidal activity of Herbicides A and B against the weeds shown in Table 7; most of these weeds were not available for tests with transplanted rice. Although the relative selectivity of these herbicides in upland rice is also evident, that aspect of the tests is more or less incidental to the purpose of this example.
In this example, rice seeds and seeds of the weeds shown in Table 7 were sown in Ray silt loam soil at a depth of 0.5 inch (1.27 cm) in containers for the soil in a greenhouse. Herbicides A and B were applied to the surface of the soil at a spray volume equivalent to 20 gals/acre (187.1 liters/hectare), followed by 0.5 in (1.27 cm) of overhead irrigation. Temperature and relative humidity in the greenhouse were on the order of 85°F (29°C) and 75%, respectively. Observations were made at 21-28 days after seeding. […]

Compound: CCCCOCN(C(=O)CCl)c1c(CC)cccc1CC [Herbicide B, n-(butoxymethyl)-2',6'-diethyl-2-chloroacetanilide, reference compound]
- % Weed Control (Monochoria Vaginalis) (Monochoria vaginalis; 4 DAT, 1.0 kg/ha): 77%
- % Weed Control (Monochoria Vaginalis) (Monochoria vaginalis; 4 DAT, 1.5 kg/ha): 94%
- % Weed Control (Monochoria Vaginalis) (Monochoria vaginalis; 4 DAT, 3.0 kg/ha): 99%
- % Weed Control (Monochoria Vaginalis) (Monochoria vaginalis; 10 DAT, 1.0 kg/ha): 65%
- % Weed Control (Monochoria Vaginalis) (Monochoria vaginalis; 10 DAT, 1.5 kg/ha): 78%
- % Weed Control (Monochoria Vaginalis) (Monochoria vaginalis; 10 DAT, 3.0 kg/ha): 89%
- % Crop Injury, stand (transplanted rice; 4 DAT, 1.0 kg/ha): 0%
- % Crop Injury, vigor (transplanted rice; 4 DAT, 1.0 kg/ha): 0%
- % Crop Injury, stand (transplanted rice; 4 DAT, 1.5 kg/ha): 0%
- % Crop Injury, vigor (transplanted rice; 4 DAT, 1.5 kg/ha): 0%
- % Crop Injury, stand (transplanted rice; 4 DAT, 3.0 kg/ha): 0%
- % Crop Injury, vigor (transplanted rice; 4 DAT, 3.0 kg/ha): 0%
- % Crop Injury, stand (transplanted rice; 10 DAT, 1.0 kg/ha): 0%
- % Crop Injury, vigor (transplanted rice; 10 DAT, 1.0 kg/ha): 0%
- % Crop Injury, stand (transplanted rice; 10 DAT, 1.5 kg/ha): 0%
- % Crop Injury, vigor (transplanted rice; 10 DAT, 1.5 kg/ha): 0%
- % Crop Injury, stand (transplanted rice; 10 DAT, 3.0 kg/ha): 0%
- % Crop Injury, vigor (transplanted rice; 10 DAT, 3.0 kg/ha): 0%
- % Weed control, Broadleaf (Mv,Sz) ([1]; 5 DAT, 1.0 kg/ha): 100%
- % Weed control, Broadleaf (Mv,Sz) ([1]; 5 DAT, 1.5 kg/ha): 100%
- % Weed control, Broadleaf (Mv,Sz) ([1]; 5 DAT, 3.0 kg/ha): 100%
- % Weed control, Broadleaf (Mv,Sz) ([1]; 14 DAT, 1.0 kg/ha): 0%
- % Weed control, Broadleaf (Mv,Sz) ([1]; 14 DAT, 1.5 kg/ha): 0%
- % Weed control, Broadleaf (Mv,Sz) ([1]; 14 DAT, 3.0 kg/ha): 70%
- Crop Injury (%) (Dapog transplanted rice [2]; 5 DAT, 1.0 kg/ha): 0%
- Crop Injury (%) (Dapog transplanted rice [2]; 5 DAT, 1.5 kg/ha): 0%
- Crop Injury (%) (Dapog transplanted rice [2]; 5 DAT, 3.0 kg/ha): 0%
- Crop Injury (%) (Dapog transplanted rice [2]; 14 DAT, 1.0 kg/ha): 0%
- Crop Injury (%) (Dapog transplanted rice [2]; 14 DAT, 1.5 kg/ha): 0%
- Crop Injury (%) (Dapog transplanted rice [2]; 14 DAT, 3.0 kg/ha): 0%
- yield vs control (Dapog transplanted rice [3]; 1 kg/ha, 5 DAT): significantly higher than the control
- Yield (% of H.W. Check) (Dapog transplanted rice [3]; 5 DAT, 1.0 kg/ha): 142%
- Yield (% of H.W. Check) (Dapog transplanted rice [3]; 5 DAT, 1.5 kg/ha): 107%
- Yield (% of H.W. Check) (Dapog transplanted rice [3]; 5 DAT, 3.0 kg/ha): 101%
- Yield (% of H.W. Check) (Dapog transplanted rice [3]; 14 DAT, 1.0 kg/ha): 83%
- Yield (% of H.W. Check) (Dapog transplanted rice [3]; 14 DAT, 1.5 kg/ha): 89%
- Yield (% of H.W. Check) (Dapog transplanted rice [3]; 14 DAT, 3.0 kg/ha): 93%
- Crop Injury (%) ([4]; 5 DAT, 1.0 kg/ha): 0%
- Crop Injury (%) ([4]; 5 DAT, 1.5 kg/ha): 0%
- Crop Injury (%) ([4]; 5 DAT, 3.0 kg/ha): 0%
- Crop Injury (%) ([4]; 14 DAT, 1.0 kg/ha): 0%
- Crop Injury (%) ([4]; 14 DAT, 1.5 kg/ha): 0%
- Crop Injury (%) ([4]; 14 DAT, 3.0 kg/ha): 0%
- control of Ann. Cyp in words (Ann. Cyp (Cyperus spp)): substantially complete control
- % Weed Control (Ann. Cyp) (Ann. Cyp (Cyperus spp); infant seedlings): 100%
- % Weed Control (Ann. Cyp) (Ann. Cyp (Cyperus spp); ordinary seedlings): 99%
- control of Ea in words [5]: complete control
- % Weed Control (Ea) ([5]; infant seedlings): 100%
- % Weed Control (Ea) ([5]; ordinary seedlings): 93%
- selectivity, A vs B, upland direct-seeded rice [6]: slightly more selective

Source: US3955959A, “Herbicide for use in transplanted rice” (priority 1974, dated 1976)
